The record followed here is ChEMBL document CHEMBL1146734, “Estrogen receptor ligands. Part 3: The SAR of dihydrobenzoxathiin SERMs” (Bioorg Med Chem Lett, 2004).

The target in assay [1] is T1, Estrogen receptor (Homo sapiens, UniProt Q92731+P03372). The assay is described as follows: […] inhibition of human ERalpha/ERbeta co-expressed in HEK 293 cells; 127/3316. It counts as functional. The settings on record: hek293.
Assay [2] addresses Estrogen receptor beta (Homo sapiens, UniProt Q92731). The assay is described as follows: Binding affinity towards human estrogen receptor beta (ERbeta).
Assay [3] concerns the target T2, Estrogen receptor (Homo sapiens, UniProt P03372).
T2 sequence (P03372 whole entry): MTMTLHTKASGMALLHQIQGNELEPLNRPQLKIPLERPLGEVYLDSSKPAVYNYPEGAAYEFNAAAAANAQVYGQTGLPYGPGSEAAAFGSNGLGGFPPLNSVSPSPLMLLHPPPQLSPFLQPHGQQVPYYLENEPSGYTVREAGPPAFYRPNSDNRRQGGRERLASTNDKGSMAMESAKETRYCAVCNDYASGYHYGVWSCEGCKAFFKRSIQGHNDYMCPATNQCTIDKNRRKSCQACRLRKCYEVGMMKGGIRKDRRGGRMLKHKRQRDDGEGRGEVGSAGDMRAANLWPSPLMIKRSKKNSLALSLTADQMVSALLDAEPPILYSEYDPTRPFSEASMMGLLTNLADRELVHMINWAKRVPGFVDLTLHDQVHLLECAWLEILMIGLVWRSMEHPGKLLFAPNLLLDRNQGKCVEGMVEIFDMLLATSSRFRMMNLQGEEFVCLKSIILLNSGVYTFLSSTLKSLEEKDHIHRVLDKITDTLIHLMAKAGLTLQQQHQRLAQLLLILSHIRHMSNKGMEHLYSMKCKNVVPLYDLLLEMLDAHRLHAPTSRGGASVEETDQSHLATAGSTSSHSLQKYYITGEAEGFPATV
Description: Binding affinity towards human estrogen receptor alpha.

For assay [4], the target named is T1, Estrogen receptor. Description: In vivo inhibition of human ERalpha/ERbeta co-expressed in HEK 293 cells. The class given is functional. The following applies: hek293.
For assay [5], the target named is T1, Estrogen receptor. The assay is described as follows: […] inhibition of human ERalpha/ERbeta co-expressed in HEK 293 cells; 21/840. The class given is functional. The settings on record: hek293.
Assay [6] concerns the target T1, Estrogen receptor. Description: […] inhibition of human ERalpha/ERbeta co-expressed in HEK 293 cells; 137/1375. It counts as functional. The following applies: hek293.
The target in assay [7] is T1, Estrogen receptor. Description: In vitro inhibition of human ERalpha/ERbeta expressed in HEK 293 cells; 76/322. The following applies: hek293.

The structures appear in SMILES notation.

As a reminder, the IC50 is the concentration needed to halve the response being measured. Read a low IC50 as greater potency.

Estrogen receptor beta, sequence (Q92731 whole entry): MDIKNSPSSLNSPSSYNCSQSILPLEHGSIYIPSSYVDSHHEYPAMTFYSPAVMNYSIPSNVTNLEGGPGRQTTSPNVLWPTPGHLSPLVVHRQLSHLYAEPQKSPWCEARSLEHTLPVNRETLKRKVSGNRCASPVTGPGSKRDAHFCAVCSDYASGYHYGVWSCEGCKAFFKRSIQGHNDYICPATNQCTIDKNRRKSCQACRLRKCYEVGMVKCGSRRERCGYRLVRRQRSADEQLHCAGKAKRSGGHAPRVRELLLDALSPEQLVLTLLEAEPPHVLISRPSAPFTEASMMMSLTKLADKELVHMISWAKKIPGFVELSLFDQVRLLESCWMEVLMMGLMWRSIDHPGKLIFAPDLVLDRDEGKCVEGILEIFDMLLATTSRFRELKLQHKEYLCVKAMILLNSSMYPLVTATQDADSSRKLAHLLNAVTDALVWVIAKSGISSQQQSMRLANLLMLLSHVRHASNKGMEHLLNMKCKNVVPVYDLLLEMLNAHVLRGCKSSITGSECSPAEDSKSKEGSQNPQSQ

Take `CC(C)[C@H]1Sc2cc(O)ccc2O[C@H]1c1ccc(OCCN2CCCCC2)cc1`: the 50% inhibitory concentration (IC50) worked out at 127 nM in assay [1], 105 nM in assay [2] and 7 nM in assay [3].

Consider `Oc1ccc(C[C@H]2Sc3cc(O)ccc3O[C@H]2c2ccc(OCCN3CCCCC3)cc2)cc1`, for which the IC50 in assay [2] came out at 308 nM; in assay [4], 14 nM; in assay [3] it was 2.7 nM.

Consider `Oc1ccc2c(c1)S[C@H](CC1CCCC1)[C@H](c1ccc(OCCN3CCCCC3)cc1)O2`, for which the IC50 was determined as 34 nM in assay [2] and 3 nM in assay [3].

For the molecule `Oc1ccc2c(c1)S[C@H](c1ccco1)[C@H](c1ccc(OCCN3CCCCC3)cc1)O2`, the IC50 was 361 nM in assay [2] and 35 nM in assay [3].

With `Oc1ccc2c(c1)S[C@H](C1CCCCCC1)[C@H](c1ccc(OCCN3CCCCC3)cc1)O2`, the IC50 in assay [2] is 28 nM; in assay [5], 21 nM; in assay [3], 7.5 nM.

With `CC(C)(C)[C@H]1Sc2cc(O)ccc2O[C@H]1c1ccc(OCCN2CCCCC2)cc1`, the IC50 in assay [2] came to 43 nM; in assay [6], 137 nM; in assay [3] it was 11 nM.

On to `Oc1ccc2c(c1)S[C@H](C1CCCC1)[C@H](c1ccc(OCCN3CCCCC3)cc1)O2`, for which the values for the half-inhibitory concentration (IC50) in assay [2] and in assay [3] were 31 nM and 2.5 nM, respectively.

Turning to `Oc1ccc2c(c1)S[C@H](c1cccnc1)[C@H](c1ccc(OCCN3CCCCC3)cc1)O2`, the IC50 in assay [2] worked out at 8250 nM; in assay [3] it was 542 nM.

For the molecule `Oc1ccc2c(c1)S[C@H](c1ccncc1)[C@H](c1ccc(OCCN3CCCCC3)cc1)O2`, the IC50 stood at 8200 nM in assay [2] and 490 nM in assay [3].

Turning to `Oc1ccc2c(c1)S[C@H](c1cccs1)[C@H](c1ccc(OCCN3CCCCC3)cc1)O2`, the IC50 in assay [2] was determined as 162 nM; in assay [3], 8.8 nM.

Consider `Oc1ccc2c(c1)S[C@H](C1CCCCC1)[C@H](c1ccc(OCCN3CCCCC3)cc1)O2`, for which the values for the IC50 in assay [2] and in assay [3] were 16 nM and 2.6 nM, respectively.

Regarding `Oc1ccc2c(c1)S[C@H](Cc1ccccc1)[C@H](c1ccc(OCCN3CCCCC3)cc1)O2`, the results for the IC50 in assay [2], in assay [4] and in assay [3] were 60 nM, 61 nM and 7.4 nM, respectively.

Regarding `CC(C)C[C@H]1Sc2cc(O)ccc2O[C@H]1c1ccc(OCCN2CCCCC2)cc1`, the figures for the IC50 in assay [2], in assay [7] and in assay [3] were 38 nM, 76 nM and 3 nM, respectively.

In the case of `Oc1ccc2c(c1)S[C@H](CC1CCCCC1)[C@H](c1ccc(OCCN3CCCCC3)cc1)O2`, the IC50 came out at 40 nM in assay [2] and 3.9 nM in assay [3].
